Starred links: 1 amine or outer side, 2 acyl side, 3 side chain; linkers in the order of their positions; H or OH if unused. Non-standard residues stand in square brackets, D forms with d. Residues, ends and D or L forms follow the SMILES beside them. *: point of attachment. X7 = CC(=O)OC(c1ccccc1)[C@@H](C(=O)[*:2])N(C)[*:1]; NMePhe(2-F) = CN[C@@H](Cc1ccccc1F)C(=O)O; X1 = CC[C@@H](C)[C@@H](O[*:1])C(=O)[*:2]; NMeVal(β-OH) = CN[C@H](C(=O)O)C(C)(C)O; X4 = CC(O)[C@@H](C)C(O[*:1])C(=O)[*:2]; X6 = CC(CO)[C@@H](C(=O)[*:2])N(C)[*:1]; NMeaIle = CC[C@@H](C)[C@H](NC)C(=O)O; Phe(2-F) = N[C@@H](Cc1ccccc1F)C(=O)O; X5 = CN([C@@H](CCCO)C(=O)[*:2])[*:1]; NMeY = CN[C@@H](Cc1ccc(O)cc1)C(=O)O; NMeF = CN[C@@H](Cc1ccccc1)C(=O)O; aIle = CC[C@@H](C)[C@H](N)C(=O)O; Nva(5-OH) = N[C@@H](CCCO)C(=O)O; NMeL = CN[C@@H](CC(C)C)C(=O)O; NMeV = CN[C@H](C(=O)O)C(C)C; Thz = O=C(O)[C@@H]1CSCN1; Nva = CCC[C@H](N)C(=O)O; OBn = c1ccc(CO*)cc1; Sar = CNCC(=O)O
Settings: mouse, in vivo, ip, 100 mg/kg
For `CC[C@@H](C)[C@H]1OC(=O)[C@H](C(C)(C)O)N(C)C(=O)[C@H](CC(C)C)NC(=O)[C@H](C(C)C)N(C)C(=O)[C@H](C(C)C)NC(=O)[C@@H]2CCCN2C(=O)[C@H](Cc2ccccc2)N(C)C(=O)[C@H](Cc2ccccc2)NC(=O)[C@H](C(C)C)N(C)C1=O` [Compound 3] (HELM PEPTIDE1{F.[meF].P.V.[meV].L.[CN([C@H](C(=O)[*:2])C(C)(C)O)[*:1]].[CC[C@@H](C)[C@@H](O[*:1])C(=O)[*:2]].[meV]}$PEPTIDE1,PEPTIDE1,1:R1-9:R2$$$V2.0), the toxicity signs was “no toxicity signs”.
In the case of `CC[C@@H](C)[C@@H]1NC(=O)[C@@H]2CCCN2C(=O)[C@H](Cc2ccccc2)N(C)C(=O)[C@H](Cc2ccccc2)NC(=O)[C@H](C(C)C)N(C)C(=O)[C@@H]([C@H](C)CC)OC(=O)[C@H](C(C)CO)N(C)C(=O)[C@H](CC(C)C)NC(=O)[C@H](C(C)C)N(C)C1=O` (stereo partly shown) [Compound 4] (cyclo(F[NMeF]P[aIle][NMeV]L[X6][X1][NMeV])), the toxicity signs is reported as “no toxicity signs”.
In the case of `CC[C@@H](C)[C@H]1OC(=O)[C@H](C(C)(C)O)N(C)C(=O)[C@H](CC(C)C)NC(=O)[C@H](C(C)C)N(C)C(=O)[C@H](CC(C)C)NC(=O)[C@@H]2CCCN2C(=O)[C@H](Cc2ccccc2)N(C)C(=O)[C@H](Cc2ccccc2)NC(=O)[C@H](C(C)C)N(C)C1=O` [Compound 6] (HELM PEPTIDE1{F.[meF].P.L.[meV].L.[CN([C@H](C(=O)[*:2])C(C)(C)O)[*:1]].[CC[C@@H](C)[C@@H](O[*:1])C(=O)[*:2]].[meV]}$PEPTIDE1,PEPTIDE1,1:R1-9:R2$$$V2.0), the toxicity signs is reported as “no toxicity signs”.
With `CC[C@@H](C)[C@@H]1NC(=O)[C@@H]2CCCN2C(=O)[C@H](Cc2ccccc2F)N(C)C(=O)[C@H](Cc2ccccc2F)NC(=O)[C@H](C(C)C)N(C)C(=O)[C@@H]([C@H](C)CC)OC(=O)[C@H](C(C)(C)O)N(C)C(=O)[C@H](CC(C)C)NC(=O)[C@H](C(C)C)N(C)C1=O` [Compound 7] (cyclo(L[NMeVal(β-OH)][X1][NMeV][Phe(2-F)][NMePhe(2-F)]P[aIle][NMeV])) the toxicity signs was “no toxicity signs”.
In the case of `CC[C@@H](C)[C@@H]1NC(=O)[C@@H]2CCCN2C(=O)[C@H](Cc2ccc(O)cc2)N(C)C(=O)[C@H](Cc2ccccc2)NC(=O)[C@H](C(C)C)N(C)C(=O)[C@@H]([C@H](C)CC)OC(=O)[C@H](C(C)(C)O)N(C)C(=O)[C@H](CC(C)C)NC(=O)[C@H](C(C)C)N(C)C1=O` [Compound 8] (cyclo(F[NMeY]P[aIle][NMeV]L[NMeVal(β-OH)][X1][NMeV])), the toxicity signs is reported as “no toxicity signs”.
In the case of `CC[C@@H](C)[C@@H]1NC(=O)[C@@H]2CSCN2C(=O)[C@H](Cc2ccccc2)N(C)C(=O)[C@H](Cc2ccccc2)NC(=O)[C@H](C(C)C)N(C)C(=O)[C@@H]([C@H](C)CC)OC(=O)[C@H](C(C)(C)O)N(C)C(=O)[C@H](CC(C)C)NC(=O)[C@H](C(C)C)N(C)C1=O` [Compound 10] (cyclo(F[NMeF][Thz][aIle][NMeV]L[NMeVal(β-OH)][X1][NMeV])), the toxicity signs is reported as “no toxicity signs”.
In the case of `CCCC[C@@H]1NC(=O)[C@@H]2CCCN2C(=O)[C@H](Cc2ccccc2)N(C)C(=O)[C@H](Cc2ccccc2)NC(=O)[C@H](C(C)C)N(C)C(=O)[C@@H]([C@H](C)CC)OC(=O)[C@H](C(C)(C)O)N(C)C(=O)[C@H](CC(C)C)NC(=O)[C@H](C(C)C)N(C)C1=O` [Compound 11] (HELM PEPTIDE1{F.[meF].P.[Nle].[meV].L.[CN([C@H](C(=O)[*:2])C(C)(C)O)[*:1]].[CC[C@@H](C)[C@@H](O[*:1])C(=O)[*:2]].[meV]}$PEPTIDE1,PEPTIDE1,1:R1-9:R2$$$V2.0), the toxicity signs is reported as “no toxicity signs”.
With `CCC[C@@H]1NC(=O)[C@H](C(C)C)N(C)C(=O)[C@H]([C@H](C)CC)NC(=O)[C@@H]2CCCN2C(=O)[C@H](Cc2ccccc2)N(C)C(=O)[C@H](Cc2ccccc2)NC(=O)[C@H](C(C)C)N(C)C(=O)[C@@H]([C@H](C)CC)OC(=O)[C@H](C(C)(C)O)N(C)C1=O` [Compound 12] (cyclo(F[NMeF]P[aIle][NMeV][Nva][NMeVal(β-OH)][X1][NMeV])) the toxicity signs was “no toxicity signs”.
For `CC[C@@H](C)[C@@H]1NC(=O)[C@@H]2CCCN2C(=O)CN(C)C(=O)[C@H](Cc2ccccc2)NC(=O)[C@H](C(C)C)N(C)C(=O)[C@@H]([C@H](C)CC)OC(=O)[C@H](C(C)(C)O)N(C)C(=O)[C@H](CC(C)C)NC(=O)[C@H](C(C)C)N(C)C1=O` [Compound 13] (cyclo(F[Sar]P[aIle][NMeV]L[NMeVal(β-OH)][X1][NMeV])), the toxicity signs was “no toxicity signs”.
For `CC[C@@H](C)[C@@H]1NC(=O)[C@@H]2CCCN2C(=O)[C@H](C(OC(C)=O)c2ccccc2)N(C)C(=O)[C@H](Cc2ccccc2)NC(=O)[C@H](C(C)C)N(C)C(=O)[C@@H]([C@H](C)CC)OC(=O)[C@H](C(C)(C)O)N(C)C(=O)[C@H](CC(C)C)NC(=O)[C@H](C(C)C)N(C)C1=O` (stereo partly drawn) [Compound 15] (cyclo(F[X7]P[aIle][NMeV]L[NMeVal(β-OH)][X1][NMeV])), the toxicity signs was “no toxicity signs”.
For `CC[C@@H](C)[C@@H]1NC(=O)[C@@H]2CCCN2C(=O)[C@H](Cc2ccccc2)N(C)C(=O)[C@H](Cc2ccccc2)NC(=O)[C@H](C(C)C)N(C)C(=O)C([C@H](C)C(C)O)OC(=O)[C@H](C(C)(C)O)N(C)C(=O)[C@H](CC(C)C)NC(=O)[C@H](C(C)C)N(C)C1=O` (stereo partly drawn) [Compound 17] (cyclo(F[NMeF]P[aIle][NMeV]L[NMeVal(β-OH)][X4][NMeV])), the toxicity signs was “no toxicity signs”.
For `CC[C@@H](C)[C@@H]1NC(=O)[C@@H]2CCCN2C(=O)[C@H](Cc2ccccc2)N(C)C(=O)[C@H](Cc2ccccc2)NC(=O)[C@H](C(C)C)N(C)C(=O)[C@@H]([C@H](C)CC)OC(=O)[C@H]([C@@H](C)O)N(C)C(=O)[C@H](CC(C)C)NC(=O)[C@H](C(C)C)N(C)C1=O` [Compound 19, Cyclo(L-aIle-L-MeVal-L-Leu-L-MeThr-D-Hmp-L-MeVal-L-Phe-L-MePhe-L-Pro)] (HELM PEPTIDE1{F.[meF].P.[CC[C@@H](C)[C@H](N[*:1])C(=O)[*:2]].[meV].L.[meT].[CC[C@@H](C)[C@@H](O[*:1])C(=O)[*:2]].[meV]}$PEPTIDE1,PEPTIDE1,1:R1-9:R2$$$V2.0), the toxicity signs was “no toxicity signs”.
For `CC[C@@H](C)[C@@H]1NC(=O)[C@@H]2CCCN2C(=O)[C@H](Cc2ccccc2)N(C)C(=O)[C@H](Cc2ccccc2)NC(=O)[C@H](C(C)C)N(C)C(=O)[C@@H]([C@H](C)CC)OC(=O)[C@H](C(C)(C)O)N(C)C(=O)[C@H](CC(C)C)NC(=O)[C@H]([C@H](C)CC)N(C)C1=O` [Compound 22, cyclo (L-aIle-L-MeaIle-L-Leu-L-βHOMeVal-D-Hmp-L-MeVal-L-Phe-L-MePhe-L-Pro)] (cyclo(F[NMeF]P[aIle][NMeaIle]L[NMeVal(β-OH)][X1][NMeV])), the toxicity signs was “no toxicity signs”.
For `CC[C@@H](C)[C@@H]1NC(=O)[C@@H]2CCCN2C(=O)[C@H](Cc2ccccc2)N(C)C(=O)[C@H](Cc2ccccc2)NC(=O)[C@H](C(C)C)N(C)C(=O)[C@@H]([C@H](C)CC)OC(=O)[C@H](C(C)(C)O)N(C)C(=O)[C@H](CC(C)C)NC(=O)[C@H](CC(C)C)N(C)C1=O` [Compound 23, cyclo(L-aIle-L-MeLeu-L-Leu-L-βHOMeVal-D-Hmp-L-MeVal-L-Phe-L-MePhe-L-Pro)] (cyclo(F[NMeF]P[aIle][NMeL]L[NMeVal(β-OH)][X1][NMeV])), the toxicity signs was “no toxicity signs”.
With `CC[C@@H](C)[C@@H]1NC(=O)[C@@H]2CCCN2C(=O)[C@H](Cc2ccccc2)N(C)C(=O)[C@H](Cc2ccccc2)NC(=O)[C@H](C(C)C)N(C)C(=O)[C@@H]([C@H](C)CC)OC(=O)[C@H](C(C)(C)O)N(C)C(=O)[C@H]([C@H](C)CC)NC(=O)[C@H](C(C)C)N(C)C1=O` [Compound 24, cyclo(L-aIle-L-MeVal-L-aIle-L-βHOMeVal-D-Hmp-L-MeVal-L-Phe-L-MePhe-L- Pro)] (cyclo(F[NMeF]P[aIle][NMeV][aIle][NMeVal(β-OH)][X1][NMeV])) the toxicity signs was “no toxicity signs”.
For `CC(C)C[C@@H]1NC(=O)[C@H](C(C)C)N(C)C(=O)[C@H](C(C)C)NC(=O)[C@@H]2CCCN2C(=O)[C@H](Cc2ccccc2)N(C)C(=O)[C@H](Cc2ccccc2)NC(=O)[C@H](C(C)C)N(C)C(=O)[C@@H](C(C)C)OC(=O)[C@H](C(C)(C)O)N(C)C1=O` [Compound 25] (HELM PEPTIDE1{F.[meF].P.V.[meV].L.[CN([C@H](C(=O)[*:2])C(C)(C)O)[*:1]].[CC(C)[C@@H](O[*:1])C(=O)[*:2]].[meV]}$PEPTIDE1,PEPTIDE1,1:R1-9:R2$$$V2.0), the toxicity signs was “no toxicity signs”.
For `CC[C@@H](C)[C@H]1OC(=O)[C@H](C(C)(C)O)N(C)C(=O)[C@H](CC(C)C)NC(=O)[C@H](C(C)C)N(C)C(=O)[C@H](CCC(=O)OCc2ccccc2)NC(=O)[C@@H]2CCCN2C(=O)[C@H](Cc2ccccc2)N(C)C(=O)[C@H](Cc2ccccc2)NC(=O)[C@H](C(C)C)N(C)C1=O` [Compound 26, cyclo(L-GluOR-L-MeVal-L-Leu-L-βHOMeVal-D-Hmp-L-MeVal-L-Phe-L-MePhe-L- Pro) (R: Bzl)] (cyclo(E(OBn)[NMeV]L[NMeVal(β-OH)][X1][NMeV]F[NMeF]P)), the toxicity signs was “no toxicity signs”.
With `CC[C@@H](C)[C@@H]1NC(=O)[C@@H]2CCCN2C(=O)[C@H](Cc2ccccc2)N(C)C(=O)[C@H](Cc2ccccc2)NC(=O)[C@H](C(C)C)N(C)C(=O)[C@@H]([C@H](C)CC)OC(=O)[C@H](C(C)(C)O)N(C)C(=O)[C@H](CC(C)C)NC(=O)[C@H](CCCO)N(C)C1=O` [Compound 28, cyclo(L-aIle-L-HOMeNva-L-Leu-L-βHOMeVal-D-Hmp-L-MeVal-L-Phe-L-MePhe-L-Pro)] (cyclo(F[NMeF]P[aIle][X5]L[NMeVal(β-OH)][X1][NMeV])) the toxicity signs was “no toxicity signs”.
In the case of `CC[C@@H](C)[C@@H]1NC(=O)[C@@H]2CCCN2C(=O)[C@H](Cc2ccccc2)N(C)C(=O)[C@H](Cc2ccccc2)NC(=O)[C@H](C(C)C)N(C)C(=O)[C@@H]([C@H](C)CC)OC(=O)[C@H](C(C)(C)O)N(C)C(=O)[C@H](CCCO)NC(=O)[C@H](C(C)C)N(C)C1=O` [Compound 39, cyclo(L-aIle-L-MeVal-L-HONva-L-βHOMeVal-D-Hmp-L-MeVal-L-Phe-L-MePhe-L-Pro)] (cyclo(F[NMeF]P[aIle][NMeV][Nva(5-OH)][NMeVal(β-OH)][X1][NMeV])), the toxicity signs is reported as “no toxicity signs”.
